Publication PMC6934184, “Selective DNA-PKcs inhibition extends the therapeutic index of localized radiotherapy and chemotherapy” (The Journal of Clinical Investigation, 2019)

Molecular target: T1, PTK2B (FAK2) (Homo sapiens, UniProt Q14289)
T1 construct: purchased Thermo Fisher Scientific (Life Technologies) SelectScreen
Experiment: SelectScreen Z'LYTE
Assay type: biochemical
How it was run: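 NU5455 was profiled across the SelectScreen Broad panel of kinase activity and binding assays. Z'LYTE reactions such as CSF1R ran at apparent Km ATP, while the Adapta CAMK1 assay used ATP listed as 10. Values are given as percent.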

T1 sequence (Q14289 whole entry): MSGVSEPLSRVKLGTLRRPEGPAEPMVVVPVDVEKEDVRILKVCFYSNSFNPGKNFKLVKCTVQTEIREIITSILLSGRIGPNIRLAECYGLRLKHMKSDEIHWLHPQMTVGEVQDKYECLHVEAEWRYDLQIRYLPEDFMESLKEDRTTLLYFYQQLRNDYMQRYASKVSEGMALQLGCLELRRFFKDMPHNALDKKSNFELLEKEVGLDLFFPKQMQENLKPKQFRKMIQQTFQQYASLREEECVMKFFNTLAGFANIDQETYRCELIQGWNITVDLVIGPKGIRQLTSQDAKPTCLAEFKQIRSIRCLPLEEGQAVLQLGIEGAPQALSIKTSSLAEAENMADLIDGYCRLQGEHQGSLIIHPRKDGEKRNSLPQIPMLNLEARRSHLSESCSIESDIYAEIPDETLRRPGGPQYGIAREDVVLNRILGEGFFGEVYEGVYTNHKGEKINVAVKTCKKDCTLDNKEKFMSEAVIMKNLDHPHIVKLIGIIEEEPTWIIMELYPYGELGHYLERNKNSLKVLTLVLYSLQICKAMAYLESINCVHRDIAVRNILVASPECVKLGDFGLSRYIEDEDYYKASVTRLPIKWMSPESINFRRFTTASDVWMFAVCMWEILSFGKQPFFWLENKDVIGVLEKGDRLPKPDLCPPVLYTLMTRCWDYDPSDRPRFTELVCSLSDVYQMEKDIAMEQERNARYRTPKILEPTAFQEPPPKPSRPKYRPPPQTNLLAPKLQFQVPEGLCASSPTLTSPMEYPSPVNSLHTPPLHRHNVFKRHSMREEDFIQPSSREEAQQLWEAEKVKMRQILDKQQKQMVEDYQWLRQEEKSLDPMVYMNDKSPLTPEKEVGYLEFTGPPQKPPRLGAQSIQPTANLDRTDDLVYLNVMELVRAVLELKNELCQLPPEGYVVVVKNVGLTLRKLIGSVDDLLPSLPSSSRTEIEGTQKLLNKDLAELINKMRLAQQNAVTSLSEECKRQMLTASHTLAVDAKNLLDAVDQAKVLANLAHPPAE

With `CN(C(=O)CN1CCOCC1)c1ccc2sc3c(-c4cccc5c(=O)cc(N6CC7CCC(C6)O7)oc45)cccc3c2c1` [NU5455] the inhibition at 1 µM was 4.2%.
